Results reported in publication PMC7201828, “Comparison of Inhibitor and Substrate Selectivity between Rodent and Human Vascular Adhesion Protein-1” (Mediators of Inflammation, 2020).
“Also recorded” adds a separate entry of the source. Where two headings read alike, the source gives them in different places.

Tests used:
[1] = molecular target: T1, recombinant rat VAP-1 (rrVAP-1) (Rattus norvegicus, UniProt O08590); assay: VAP-1 oxidative deamination fluorescence assay (Amplex Red, benzylamine), inhibition; assay type: biochemical; conditions: recombinant rat VAP-1, 50 μM BA, 30 minutes at 37°C, three separate determinations; read-out: IC50 mean ± SD, Rat
T1 construct: purchased R&D Systems (custom product); host or cells: Spodoptera frugiperda Sf21 (baculovirus)
T1 sequence (O08590 28-763 limits assumed): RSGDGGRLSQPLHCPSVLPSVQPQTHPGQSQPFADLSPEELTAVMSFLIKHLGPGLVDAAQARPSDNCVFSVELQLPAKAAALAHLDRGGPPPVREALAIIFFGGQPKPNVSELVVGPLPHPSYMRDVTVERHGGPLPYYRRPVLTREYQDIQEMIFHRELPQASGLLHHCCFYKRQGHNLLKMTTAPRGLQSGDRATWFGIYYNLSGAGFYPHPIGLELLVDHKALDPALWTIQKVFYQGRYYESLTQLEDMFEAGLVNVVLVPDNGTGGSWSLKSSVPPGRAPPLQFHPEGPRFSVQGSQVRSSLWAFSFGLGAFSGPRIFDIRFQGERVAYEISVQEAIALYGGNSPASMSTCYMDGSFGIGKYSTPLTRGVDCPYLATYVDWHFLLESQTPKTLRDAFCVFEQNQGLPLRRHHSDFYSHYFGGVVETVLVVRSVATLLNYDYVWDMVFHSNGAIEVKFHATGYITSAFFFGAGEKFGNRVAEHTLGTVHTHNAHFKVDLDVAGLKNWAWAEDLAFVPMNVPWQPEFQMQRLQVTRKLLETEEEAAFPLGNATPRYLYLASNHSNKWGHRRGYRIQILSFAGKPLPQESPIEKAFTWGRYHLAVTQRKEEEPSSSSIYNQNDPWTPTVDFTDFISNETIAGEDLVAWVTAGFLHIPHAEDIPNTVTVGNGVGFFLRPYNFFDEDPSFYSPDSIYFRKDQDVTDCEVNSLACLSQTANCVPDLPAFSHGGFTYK
Method: (§1) Data processing was performed using Prism software.

[2] = molecular target: T2, recombinant human VAP-1 (rhVAP-1) (Homo sapiens, UniProt Q16853); assay: as above; assay type: biochemical; conditions: for IC50: recombinant human VAP-1, 50 μM BA, 30 minutes at 37°C, three separate determinations, read-out: IC50 mean ± SD, Human
T2 construct: purchased R&D Systems 3957-AO-010; host or cells: Spodoptera frugiperda Sf21 (baculovirus)
T2 sequence (Q16853 27-763 limits assumed): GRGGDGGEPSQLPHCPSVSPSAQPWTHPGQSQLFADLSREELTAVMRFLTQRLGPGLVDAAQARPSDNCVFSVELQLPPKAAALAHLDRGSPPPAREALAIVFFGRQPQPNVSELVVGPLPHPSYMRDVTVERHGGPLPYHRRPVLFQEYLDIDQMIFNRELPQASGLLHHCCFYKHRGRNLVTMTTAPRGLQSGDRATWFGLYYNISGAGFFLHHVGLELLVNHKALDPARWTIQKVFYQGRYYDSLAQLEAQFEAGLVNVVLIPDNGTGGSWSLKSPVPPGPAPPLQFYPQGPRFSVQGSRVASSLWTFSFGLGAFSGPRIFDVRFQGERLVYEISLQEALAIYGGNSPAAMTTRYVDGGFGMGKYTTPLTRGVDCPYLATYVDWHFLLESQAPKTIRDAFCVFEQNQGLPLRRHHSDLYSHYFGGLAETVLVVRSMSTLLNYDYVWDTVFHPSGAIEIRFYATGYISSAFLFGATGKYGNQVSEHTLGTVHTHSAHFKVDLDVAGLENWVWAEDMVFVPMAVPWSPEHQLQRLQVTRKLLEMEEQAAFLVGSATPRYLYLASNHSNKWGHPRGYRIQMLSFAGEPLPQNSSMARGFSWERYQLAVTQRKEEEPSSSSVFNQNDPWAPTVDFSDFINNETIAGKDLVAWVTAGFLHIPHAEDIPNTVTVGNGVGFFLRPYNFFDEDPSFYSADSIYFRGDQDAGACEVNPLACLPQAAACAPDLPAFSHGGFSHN
Method: as §1

[3] = system: STZ-induced diabetic rats; parameters: method as in PMID 23664164; conditions: administered subcutaneously; cited from earlier work
[4] = molecular target: T3, recombinant mouse VAP-1 (rmVAP-1) (Mus musculus, UniProt O70423); assay: VAP-1 oxidative deamination fluorescence assay (Amplex Red, benzylamine), inhibition
T3 sequence (O70423 28-765 limits assumed): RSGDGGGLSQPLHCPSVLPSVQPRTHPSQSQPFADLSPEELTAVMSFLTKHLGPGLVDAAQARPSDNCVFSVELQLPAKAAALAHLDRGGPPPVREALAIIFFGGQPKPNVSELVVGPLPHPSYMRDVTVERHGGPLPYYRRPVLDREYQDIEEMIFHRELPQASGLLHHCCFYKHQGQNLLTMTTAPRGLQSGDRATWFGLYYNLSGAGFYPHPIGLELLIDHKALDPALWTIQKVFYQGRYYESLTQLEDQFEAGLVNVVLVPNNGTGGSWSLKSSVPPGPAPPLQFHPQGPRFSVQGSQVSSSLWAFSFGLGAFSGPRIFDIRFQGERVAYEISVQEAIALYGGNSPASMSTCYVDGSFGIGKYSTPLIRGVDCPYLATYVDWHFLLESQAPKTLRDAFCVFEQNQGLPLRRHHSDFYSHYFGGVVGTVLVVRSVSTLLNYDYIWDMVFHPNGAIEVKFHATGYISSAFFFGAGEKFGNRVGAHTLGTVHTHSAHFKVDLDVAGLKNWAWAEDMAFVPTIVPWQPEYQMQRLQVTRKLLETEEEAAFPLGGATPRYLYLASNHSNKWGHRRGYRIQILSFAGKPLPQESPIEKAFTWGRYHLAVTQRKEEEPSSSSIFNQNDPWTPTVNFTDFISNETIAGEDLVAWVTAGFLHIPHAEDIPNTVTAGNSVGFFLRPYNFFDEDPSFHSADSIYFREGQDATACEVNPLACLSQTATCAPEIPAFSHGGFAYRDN
Method: (§2) The enzymatic activity of recombinant VAP-1 and inhibitor potency was determined using a variation of the fluorometric assay for measuring hydrogen peroxide formation [22]. Briefly, the assay measures the H2O2 generated during the oxidative deamination of an amine substrate (BA for inhibition purposes) by converting Amplex® Red to the fluorescent product, resorufin, via horseradish peroxidase (HRP). […] Stock solutions of Amplex Red (1 mM), HRP (10 U/mL), the substrates (200 μM BA for inhibition), and inhibitor were prepared in reaction buffer and added to the appropriate wells, that the final concentration in each well was 0.05 mM Amplex Red, 0.5 U/mL HRP, and 50 μM BA (saturating condition) in a total reaction volume of 0.1 mL.
(§3) Standard curves were prepared for each plate by serially diluting H2O2 in reaction buffer with equivalent concentrations of Amplex Red and HRP. A 10 μM solution of resorufin was prepared in reaction buffer and was dispensed in duplicate as the positive control for maximum fluorescence. Plates were incubated for 30 minutes at 37°C, protected from light under foil to minimize the resorufin artifactually formed when Amplex Red is exposed to light [28]. The plate was read at 530/35 emission and 590/35 excitation. The mean fluorescence of the background was subtracted from the mean fluorescence of the inhibitor concentration in the presence of BA. The percent control was calculated using equation (1). […] (1) %control=average fluorescence with inhibitor−background/average fluorescence of reaction without inhibitor−background×100, (2) %inhibition=100−%control.

[5] = system: rat VAP-1; parameters: method as in PMID 23540955; conditions: recombinant enzyme suspension from CHO cells expressing rat VAP-1, 14C-BA; read-out: IC50 previously reported, Rat; cited from earlier work
[6] = system: human VAP-1; parameters: method as in PMID 23540955; conditions: recombinant enzyme suspension from CHO cells expressing human VAP-1, 14C-BA; read-out: IC50 previously reported, Human; cited from earlier work
[7] = system: rhVAP-1; parameters: method as in PMID 23664164; conditions: recombinant human VAP-1; cited from earlier work
[8] = system: VAP-1 in bovine lung microsomes; parameters: method as in PMID 8694842; conditions: coincubated with benzylamine; cited from earlier work
[9] = molecular target: human VAP-1 recombinant enzymes; conditions: read-out: IC50 previously reported, Human, LC-MS/MS benzaldehyde formation; cited from earlier work
[10] = system: human VAP-1 from aorta membrane preparations; conditions: read-out: IC50 previously reported, Human, LC-MS/MS benzaldehyde formation; cited from earlier work
[11] = system: VAP-1 from rat aorta homogenates; conditions: read-out: IC50 previously reported, Rat, 14C-BA; cited from earlier work
[12] = system: VAP-1 from rat lung homogenates; parameters: method as in PMID 16081681; conditions: radiolabeled substrate, read-out: IC50 previously reported, Rat; cited from earlier work
[13] = system: rats; parameters: method as in PMID 16081681, PMID 23263543; conditions: oral administration to rats, carrageenan footpad model; cited from earlier work
[14] = system: mice; parameters: method as in PMID 16081681, PMID 23263543; conditions: oral administration to mice, ulcerative colitis and LPS-induced endotoxemia; cited from earlier work
[15] = system: VAP-1 from human umbilical cord homogenates; parameters: method as in PMID 16081681; conditions: radiolabeled substrate, read-out: IC50 previously reported, Human; cited from earlier work
[16] = system: rat and mouse disease models; conditions: various rat and mouse disease models; cited from earlier work
[17] = system: VAP-1 in in vitro tissue preparations; parameters: method as in PMID 8920635; conditions: humans; cited from earlier work
[18] = system: VAP-1; parameters: method as in PMID 16570912; conditions: cell-based inhibition assay; cited from earlier work
[19] = system: lysyl oxidase (LOX); parameters: method as in PMID 17872591, PMID 17452500, PMID 18469024; conditions: cited from earlier work
[20] = molecular target: recombinant mouse VAP-1 (Mus musculus, UniProt O70423); assay: Substrate saturation curves, fluorometric assay detecting hydrogen peroxide; conditions: recombinant mouse VAP-1, n = 1 plate
Method: as §2, §3
(§4) Both substrates were incubated with recombinant VAP-1 in triplicate on three separate plates.

[21] = molecular target: recombinant rat VAP-1 (Rattus norvegicus, UniProt O08590); assay: as above; conditions: recombinant rat VAP-1, n = 1 plate
Method: as §2, §3, §4

[22] = molecular target: recombinant human VAP-1 (Homo sapiens, UniProt Q16853); assay: as above; conditions: recombinant human VAP-1, n = 1 plate
Method: as §2, §3, §4

SMILES: CC(=O)Nc1nc(CCc2ccc(NC(=N)N)cc2)c(Cc2ccc(S(C)(=O)=O)cc2)s1 [Astellas compound 35c]
- IC50 [1]: 50.4 ± 6.8 nM
- IC50 [2]: 22.5 ± 6.9 nM
- Ocular permeability [3]: significantly reduced ocular permeability
- IC50 [4]: 414 ± 113 nM
- IC50 [5]: 72 nM
- IC50 [6]: 20 nM
- IC50 [7]: 230 nM

SMILES: NNc1nncc2ccccc12 [Hydralazine (HYD), hydralazine]
- IC50 [1]: 3130 ± 123 nM
- IC50 [2]: 7750 ± 2320 nM
- Potency relative to semicarbazide [8]: twenty times more potent
- IC50 [4]: 1180 ± 92 nM
- IC50 [9]: 26500 nM
- IC50 [10]: 6400 nM
- IC50 [11]: 25 nM

SMILES: C=C(CNN)c1ccccc1 [LJP-1207]
- IC50 [1]: 120 ± 6.7 nM
- IC50 [2]: 252 ± 22.5 nM
- IC50 [12]: 7.5 nM
- Reduction of inflammation [13]: effective in reducing inflammation
- Reduction of inflammation [14]: effective in reducing inflammation
- IC50 [4]: 102 ± 47.8 nM
- IC50 [15]: 17 nM

SMILES: CC(C)(C)NC(=O)c1ccc(OC/C(=C/F)CN)cc1 [PXS-4728A]
- Leukocyte adhesion and migration to sites of lung inflammation [16]: reduced leukocyte adhesion and migration

SMILES: NCCc1ccccc1 [Phenylethylamine (PEA), phenylethylamine]
- Km [17]: 7.9 mM

SMILES: NNC(N)=O [Semiarid (SEM), semicarbazide]
- Semicarbazide required for inhibition relative to LJP-1207 [18]: 100 x
- IC50 [1]: 993000 ± 1.22e+06 nM
- Difference in IC50 between human and rat VAP-1 ([2]; 85.9 μM vs. 993 μM): ~10 fold
- IC50 [2]: 85900 ± 12900 nM
- IC50 ([4]; read-out: IC50 mean ± SD, Mouse, recombinant mouse VAP-1, 50 μM BA, 30 minutes at 37°C, three separate determinations): 295000 ± 29000 nM
- Inhibition of lysyl oxidase (in words) [19]: inhibits

SMILES: NCCc1ccc(O)cc1 [TYR, tyramine]
- Km [17]: 10.5 mM
- Substrate turnover (in words) [20]: low reaction rates; also recorded: not a substrate

SMILES: NNCCc1ccccc1 [phenelzine]
- Potency relative to semicarbazide [8]: over 100 times

SMILES: NNc1ccccc1 [phenylhydrazine]
- Potency relative to semicarbazide [8]: over 100 times

SMILES: NCCc1c[nH]c2ccccc12 [tryptamine]
- Substrate turnover (in words) [21]: low reaction rates
- Substrate turnover (in words) [22]: low reaction rates
- Substrate turnover (in words) [20]: low reaction rates
